Data: ChEMBL document CHEMBL1201862, “PubChem BioAssay data set” (2004)
The source made the active and inactive calls.

Tests used:
[1] = target: T1, Adenosylmethionine-8-amino-7-oxononanoate aminotransferase (Mycobacterium tuberculosis, UniProt P9WQ81); assay: Mycobacterium tuberculosis BioA enzyme inhibitor Measured in Biochemical System Using Plate Reader - 2163-02_Inhibitor_Dose_CherryPick_Activity.; format: functional, Mycobacterium tuberculosis UT205
T1 sequence (P9WQ81 whole entry): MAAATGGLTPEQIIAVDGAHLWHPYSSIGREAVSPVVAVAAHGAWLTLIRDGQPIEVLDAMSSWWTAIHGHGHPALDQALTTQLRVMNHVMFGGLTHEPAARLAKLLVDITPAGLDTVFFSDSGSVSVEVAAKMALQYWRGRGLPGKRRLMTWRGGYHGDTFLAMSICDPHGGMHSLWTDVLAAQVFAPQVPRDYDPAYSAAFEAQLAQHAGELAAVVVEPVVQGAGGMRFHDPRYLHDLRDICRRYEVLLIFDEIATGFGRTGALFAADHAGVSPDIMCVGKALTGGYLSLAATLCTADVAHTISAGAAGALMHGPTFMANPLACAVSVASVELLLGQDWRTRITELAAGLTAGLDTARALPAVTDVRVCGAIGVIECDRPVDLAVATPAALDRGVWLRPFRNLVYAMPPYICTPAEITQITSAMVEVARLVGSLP

[2] = target: T2, Type-1 angiotensin II receptor (Homo sapiens, UniProt P30556); assay: antagonism of angiotensin II type 1 receptor – cell-based, uHTS hits, selectivity assay for APJ receptor antagonist project, dose response (AID 463214); format: functional;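 further: antagonist potency against angiotensin II stimulated AT1 response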
T2 sequence (P30556 whole entry): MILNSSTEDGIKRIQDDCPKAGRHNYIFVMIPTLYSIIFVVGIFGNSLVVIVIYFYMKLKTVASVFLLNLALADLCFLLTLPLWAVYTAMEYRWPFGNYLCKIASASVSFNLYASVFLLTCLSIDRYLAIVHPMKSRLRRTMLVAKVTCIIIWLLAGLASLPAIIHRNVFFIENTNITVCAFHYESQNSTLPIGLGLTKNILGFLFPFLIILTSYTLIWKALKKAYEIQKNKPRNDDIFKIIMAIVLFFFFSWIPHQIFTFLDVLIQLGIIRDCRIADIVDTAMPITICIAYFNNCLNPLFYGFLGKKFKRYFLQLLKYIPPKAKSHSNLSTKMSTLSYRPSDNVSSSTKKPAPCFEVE

Beta-galactosidase = Beta-galactosidase (Escherichia coli, UniProt Q8VNN2); assay: PubChem AID 485352; format: functional
[3] = target: T3, Nuclear receptor subfamily 0 group B member 1 (Homo sapiens, UniProt P51843); format: functional, cell-based;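 further: HEK293T cells transfected with SF-1 and DAX-1 plus StAR promoter luciferase reporter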
T3 sequence (P51843 whole entry): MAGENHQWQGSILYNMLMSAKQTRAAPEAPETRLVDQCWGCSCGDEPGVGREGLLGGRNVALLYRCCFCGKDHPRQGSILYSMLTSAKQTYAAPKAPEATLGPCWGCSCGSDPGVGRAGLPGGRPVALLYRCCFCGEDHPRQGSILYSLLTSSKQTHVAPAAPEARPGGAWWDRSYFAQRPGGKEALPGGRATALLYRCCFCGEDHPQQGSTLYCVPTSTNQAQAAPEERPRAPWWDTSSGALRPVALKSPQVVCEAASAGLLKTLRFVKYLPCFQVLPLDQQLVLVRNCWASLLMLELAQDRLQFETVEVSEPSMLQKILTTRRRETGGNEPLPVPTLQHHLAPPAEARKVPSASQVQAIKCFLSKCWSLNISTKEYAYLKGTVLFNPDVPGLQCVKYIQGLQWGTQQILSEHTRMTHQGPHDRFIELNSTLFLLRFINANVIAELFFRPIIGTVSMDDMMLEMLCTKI

cells = format: functional, cell-based
[4] = target: T4, Small ubiquitin-related modifier 1 (Homo sapiens, UniProt P63165); assay: SUMO1 protein-protein binding blockers, potency – biochemical, FRET, dose response (AID 624383); format: functional; conditions: read-out: IC50_Mean
[5] = target: T4, Small ubiquitin-related modifier 1; assay: SUMO1 protein interaction blockers, potency – biochemical, fluorescence polarization, uHTS hits, dose response (AID 624382); format: functional; conditions: read-out: IC50_Mean
[6] = test system: Streptococcus sp. 'group A'; assay: Streptococcus pyogenes SK(-)GAS viability under kanamycin – luminescence, BacTiterGlo, confirmation, counter-screen for streptokinase expression inhibitor project, dose response (AID 1900); format: functional, organism-based
Streptococcus = assay: GAS UMAA2166 growth inhibition – luminescence, BacTiterGlo, counter-screen for streptokinase expression inhibitor project, dose response (AID 1915); format: functional, organism-based;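 further: potency for reduction of bacterial viability or growth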
Streptokinase A = target: T5, Streptokinase A (Streptococcus pyogenes serotype M1, UniProt P10520); assay: viability-normalized secreted streptokinase activity reduction – plasminogen activation absorbance, OD405, dose response (AID 1914); format: functional, Streptococcus pyogenes M1 GAS;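 further: secreted streptokinase activity via plasminogen activation per viability signal from cell pellet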
T5 sequence (P10520 whole entry): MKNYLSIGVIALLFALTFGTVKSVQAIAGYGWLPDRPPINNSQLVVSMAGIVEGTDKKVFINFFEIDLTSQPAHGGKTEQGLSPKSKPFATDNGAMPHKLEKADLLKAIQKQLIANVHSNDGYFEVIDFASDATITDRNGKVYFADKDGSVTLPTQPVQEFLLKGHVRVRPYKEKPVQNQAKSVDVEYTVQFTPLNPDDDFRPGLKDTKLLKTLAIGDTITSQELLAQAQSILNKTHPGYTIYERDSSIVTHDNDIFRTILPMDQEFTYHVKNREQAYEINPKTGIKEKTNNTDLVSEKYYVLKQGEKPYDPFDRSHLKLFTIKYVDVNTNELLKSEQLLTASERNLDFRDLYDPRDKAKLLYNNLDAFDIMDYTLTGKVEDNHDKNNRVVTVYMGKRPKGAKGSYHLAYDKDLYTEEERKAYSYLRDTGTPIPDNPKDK

Mu-type opioid receptor = Mu-type opioid receptor (Homo sapiens, UniProt P35372); format: functional, cell-based;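 further: U2OS cells with beta-arrestin recruitment to OPRM1 by beta-gal complementation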
[7] = target: 5-hydroxytryptamine receptor 2A (Mus musculus, UniProt P35363); format: functional, cell-based;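 further: CHO-K1 cells with tagged receptor and beta-arrestin; agonist potency measured as compound-induced activation of the receptor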
[8] = target: T6, Long-chain-fatty-acid--AMP ligase FadD28 (Mycobacterium tuberculosis, UniProt P9WQ59); assay: Fluorescence polarization aasay to screen for inhibitors that compete for the binding of FadD28 to a bisubstrate Measured in Biochemical System Using Plate Reader - 2147-01_Inhibitor_Dose_CherryPick_Activity.; format: functional, Mycobacterium tuberculosis H37Rv
T6 sequence (P9WQ59 whole entry): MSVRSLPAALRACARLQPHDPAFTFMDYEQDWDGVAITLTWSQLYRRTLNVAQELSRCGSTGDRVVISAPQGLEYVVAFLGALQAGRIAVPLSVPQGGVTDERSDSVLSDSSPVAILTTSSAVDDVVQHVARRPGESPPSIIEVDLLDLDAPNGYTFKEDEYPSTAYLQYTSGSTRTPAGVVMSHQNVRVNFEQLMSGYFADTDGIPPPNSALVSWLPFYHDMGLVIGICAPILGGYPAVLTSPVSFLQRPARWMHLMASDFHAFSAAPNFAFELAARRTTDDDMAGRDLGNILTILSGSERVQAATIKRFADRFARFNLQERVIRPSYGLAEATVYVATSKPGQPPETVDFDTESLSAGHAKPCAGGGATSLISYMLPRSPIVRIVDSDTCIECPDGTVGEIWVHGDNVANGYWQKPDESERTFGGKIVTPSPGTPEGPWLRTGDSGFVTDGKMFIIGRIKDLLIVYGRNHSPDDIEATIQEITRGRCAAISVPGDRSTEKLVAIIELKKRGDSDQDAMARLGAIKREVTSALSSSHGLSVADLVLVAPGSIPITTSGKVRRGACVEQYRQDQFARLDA

Beta-lactamase [9] = target: T7, Beta-lactamase (Pseudomonas aeruginosa, UniProt Q79MP6); assay: inhibition of IMP-1 beta-lactamase activity – biochemical, epi-absorbance, selectivity assay for VIM-2 inhibitor project, dose response (AID 1920)
Beta-lactamase [10] = target: Beta-lactamase (Salmonella choleraesuis (strain SC-B67), UniProt Q5J463); assay: Epi-absorbance-based counterscreen for selective VIM-2 inhibitors: dose response biochemical high throughput screening assay to identify inhibitors of TEM-1 serine-beta-lactamase.
Beta-lactamase [11] = target: T7, Beta-lactamase; assay: […] counterscreen for selective VIM-2 inhibitors: dose response biochemical high throughput screening assay to identify inhibitors of IMP-1 metallo-beta-lactamase.

T7 sequence (Q79MP6 whole entry): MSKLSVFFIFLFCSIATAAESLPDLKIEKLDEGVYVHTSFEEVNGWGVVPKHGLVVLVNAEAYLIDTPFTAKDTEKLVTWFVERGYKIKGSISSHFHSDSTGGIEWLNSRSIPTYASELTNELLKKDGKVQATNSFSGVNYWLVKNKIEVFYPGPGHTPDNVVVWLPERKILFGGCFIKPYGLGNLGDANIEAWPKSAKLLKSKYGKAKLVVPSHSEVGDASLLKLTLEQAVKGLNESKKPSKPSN
T4 sequence (P63165 whole entry): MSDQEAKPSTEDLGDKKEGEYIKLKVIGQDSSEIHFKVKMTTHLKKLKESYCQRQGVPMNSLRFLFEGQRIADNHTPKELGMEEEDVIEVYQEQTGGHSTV
Beta-galactosidase, sequence (Q8VNN2 whole entry): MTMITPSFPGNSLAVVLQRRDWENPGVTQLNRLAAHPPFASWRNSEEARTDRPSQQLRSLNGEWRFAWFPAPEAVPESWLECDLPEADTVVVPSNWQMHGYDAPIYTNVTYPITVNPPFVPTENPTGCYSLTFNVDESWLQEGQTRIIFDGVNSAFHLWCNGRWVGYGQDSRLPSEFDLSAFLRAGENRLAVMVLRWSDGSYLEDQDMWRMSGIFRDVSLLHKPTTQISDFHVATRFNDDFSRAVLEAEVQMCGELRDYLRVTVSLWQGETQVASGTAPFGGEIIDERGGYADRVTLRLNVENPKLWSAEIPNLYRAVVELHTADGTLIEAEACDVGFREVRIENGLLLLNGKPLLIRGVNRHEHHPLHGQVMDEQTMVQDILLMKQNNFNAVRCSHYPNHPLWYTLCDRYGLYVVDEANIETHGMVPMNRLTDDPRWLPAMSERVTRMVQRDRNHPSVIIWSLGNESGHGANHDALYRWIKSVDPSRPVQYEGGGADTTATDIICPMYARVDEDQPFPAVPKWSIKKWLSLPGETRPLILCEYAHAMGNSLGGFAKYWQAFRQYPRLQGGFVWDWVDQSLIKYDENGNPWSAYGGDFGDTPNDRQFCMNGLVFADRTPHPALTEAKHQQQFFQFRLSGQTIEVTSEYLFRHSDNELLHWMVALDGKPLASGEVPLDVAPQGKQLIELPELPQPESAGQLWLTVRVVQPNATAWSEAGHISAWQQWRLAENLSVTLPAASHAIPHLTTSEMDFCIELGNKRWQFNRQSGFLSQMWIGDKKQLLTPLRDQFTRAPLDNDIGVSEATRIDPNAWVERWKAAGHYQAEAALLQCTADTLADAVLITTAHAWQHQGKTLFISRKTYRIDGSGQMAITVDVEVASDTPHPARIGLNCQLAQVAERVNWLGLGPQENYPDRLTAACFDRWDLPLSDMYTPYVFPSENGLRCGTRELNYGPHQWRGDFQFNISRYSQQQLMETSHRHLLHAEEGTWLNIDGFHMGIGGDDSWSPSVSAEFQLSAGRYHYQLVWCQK
Beta-lactamase (Salmonella choleraesuis (strain SC-B67), UniProt Q5J463), sequence (Q5J463 whole entry): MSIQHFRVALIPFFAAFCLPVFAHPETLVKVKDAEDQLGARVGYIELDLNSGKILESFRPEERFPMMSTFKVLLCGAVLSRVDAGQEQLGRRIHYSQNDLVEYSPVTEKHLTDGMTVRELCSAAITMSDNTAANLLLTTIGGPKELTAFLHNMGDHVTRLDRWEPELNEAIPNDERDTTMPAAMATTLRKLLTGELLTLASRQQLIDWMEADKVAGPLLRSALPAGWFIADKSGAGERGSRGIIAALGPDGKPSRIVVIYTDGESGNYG
5-hydroxytryptamine receptor 2A, sequence (P35363 whole entry): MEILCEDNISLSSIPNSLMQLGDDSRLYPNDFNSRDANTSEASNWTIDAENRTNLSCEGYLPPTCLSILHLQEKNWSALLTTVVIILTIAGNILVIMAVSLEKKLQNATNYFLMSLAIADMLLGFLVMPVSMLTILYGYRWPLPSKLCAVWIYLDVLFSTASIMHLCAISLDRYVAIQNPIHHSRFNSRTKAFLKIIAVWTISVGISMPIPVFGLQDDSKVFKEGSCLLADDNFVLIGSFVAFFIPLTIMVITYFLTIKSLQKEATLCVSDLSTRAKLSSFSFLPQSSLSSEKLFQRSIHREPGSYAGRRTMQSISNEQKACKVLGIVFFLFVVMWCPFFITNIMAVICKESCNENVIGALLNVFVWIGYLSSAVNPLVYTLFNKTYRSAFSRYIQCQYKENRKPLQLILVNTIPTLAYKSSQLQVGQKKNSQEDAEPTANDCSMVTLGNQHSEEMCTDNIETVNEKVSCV
Mu-type opioid receptor, sequence (P35372 whole entry): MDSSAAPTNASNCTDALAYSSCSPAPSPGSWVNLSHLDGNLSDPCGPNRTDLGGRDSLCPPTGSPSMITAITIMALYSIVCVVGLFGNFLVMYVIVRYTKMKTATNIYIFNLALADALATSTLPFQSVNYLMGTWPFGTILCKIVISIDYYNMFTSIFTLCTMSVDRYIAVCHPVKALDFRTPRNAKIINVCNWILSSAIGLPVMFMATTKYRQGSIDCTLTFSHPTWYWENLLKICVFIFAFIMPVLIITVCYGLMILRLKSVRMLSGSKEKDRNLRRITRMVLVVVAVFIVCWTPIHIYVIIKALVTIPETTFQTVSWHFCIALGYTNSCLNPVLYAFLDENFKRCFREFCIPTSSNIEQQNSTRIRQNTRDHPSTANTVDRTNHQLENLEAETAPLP

For COc1ccc2c(c1)c(C(=O)CN1CCC3(CC1)OCCO3)c(C)n2Cc1ccccc1, the AC50 [1] was 3.41 µM (active).

With Cn1nnc(NC(=S)NC(=O)c2cccc3ccccc23)n1 the IC50 [2] was > 40 µM (not active) and the EC50 (Beta-galactosidase) was > 40 µM (inactive).

For O=C(Nc1ccccc1Cl)NC1CCCCCCC1, the IC50 [3] was > 67.5 µM (inactive) and the IC50 (cells) was > 67.5 µM (inactive).

With COc1ccc(Cl)cc1Nc1nc(-c2sc(NC(=O)CC(C)C)nc2C)cs1 the IC50 [4] was 14.8 µM (active) and the IC50 [5] was > 66.6 µM (inactive).

With Cn1c(O)c(N=Nc2nc(-c3ccccc3)cs2)c2ccccc21 the EC50 [6] was 3.21 µM (active), the EC50 (Streptococcus) was > 150 µM (not active) and the EC50 (Streptokinase A) was 7.09 µM (active). For the same compound, the IC50 [2] was > 40 µM (not active) and the EC50 (Beta-galactosidase) was > 40 µM (inactive).

For Cc1ccc(CN2CCN(c3ncccn3)CC2)c(C)c1, the EC50 (Mu-type opioid receptor) was 92.4 µM (inactive) and the EC50 [7] was 0.337 µM (active).

With CCCC(=O)C1=C(c2ccccc2)C(C#N)(C#N)C(C#N)=C1N the AC50 [8] was 32 µM (inactive).

With Cc1cc(OCC(=O)N2CCC[C@@H]2C(=O)O)c2c(C)c(C)c(=O)oc2c1 the IC50 (Beta-lactamase [9]) was > 59.6 µM (inactive), the IC50 (Beta-lactamase [10]) was > 59.6 µM (inactive) and the IC50 (Beta-lactamase [11]) was > 59.6 µM (inactive).

In the case of Cc1c(OCC(=O)N2CCC[C@@H]2C(=O)O)ccc2c3c(c(=O)oc12)CCC3, the IC50 (Beta-lactamase [9]) was > 59.6 µM (inactive), the IC50 (Beta-lactamase [10]) was > 59.6 µM (inactive) and the IC50 (Beta-lactamase [11]) was > 59.6 µM (inactive).
